This note sets out measurements from patent USRE50050E1, “Pyrimidinedione compounds” (MyoKardia, Inc., priority 2013, dated 2024).

A value given as a limit tells only on which side of the number the result lay.

The target of one experiment is T1, bovine cardiac myosin (Bos taurus, UniProt Q9BE39).
T1 construct: The source of cardiac myosin was from bovine heart in the form of skinned myofibrils; from tissue; host or cells: bovine heart, skinned myofibrils
T1 sequence (Q9BE39 whole entry): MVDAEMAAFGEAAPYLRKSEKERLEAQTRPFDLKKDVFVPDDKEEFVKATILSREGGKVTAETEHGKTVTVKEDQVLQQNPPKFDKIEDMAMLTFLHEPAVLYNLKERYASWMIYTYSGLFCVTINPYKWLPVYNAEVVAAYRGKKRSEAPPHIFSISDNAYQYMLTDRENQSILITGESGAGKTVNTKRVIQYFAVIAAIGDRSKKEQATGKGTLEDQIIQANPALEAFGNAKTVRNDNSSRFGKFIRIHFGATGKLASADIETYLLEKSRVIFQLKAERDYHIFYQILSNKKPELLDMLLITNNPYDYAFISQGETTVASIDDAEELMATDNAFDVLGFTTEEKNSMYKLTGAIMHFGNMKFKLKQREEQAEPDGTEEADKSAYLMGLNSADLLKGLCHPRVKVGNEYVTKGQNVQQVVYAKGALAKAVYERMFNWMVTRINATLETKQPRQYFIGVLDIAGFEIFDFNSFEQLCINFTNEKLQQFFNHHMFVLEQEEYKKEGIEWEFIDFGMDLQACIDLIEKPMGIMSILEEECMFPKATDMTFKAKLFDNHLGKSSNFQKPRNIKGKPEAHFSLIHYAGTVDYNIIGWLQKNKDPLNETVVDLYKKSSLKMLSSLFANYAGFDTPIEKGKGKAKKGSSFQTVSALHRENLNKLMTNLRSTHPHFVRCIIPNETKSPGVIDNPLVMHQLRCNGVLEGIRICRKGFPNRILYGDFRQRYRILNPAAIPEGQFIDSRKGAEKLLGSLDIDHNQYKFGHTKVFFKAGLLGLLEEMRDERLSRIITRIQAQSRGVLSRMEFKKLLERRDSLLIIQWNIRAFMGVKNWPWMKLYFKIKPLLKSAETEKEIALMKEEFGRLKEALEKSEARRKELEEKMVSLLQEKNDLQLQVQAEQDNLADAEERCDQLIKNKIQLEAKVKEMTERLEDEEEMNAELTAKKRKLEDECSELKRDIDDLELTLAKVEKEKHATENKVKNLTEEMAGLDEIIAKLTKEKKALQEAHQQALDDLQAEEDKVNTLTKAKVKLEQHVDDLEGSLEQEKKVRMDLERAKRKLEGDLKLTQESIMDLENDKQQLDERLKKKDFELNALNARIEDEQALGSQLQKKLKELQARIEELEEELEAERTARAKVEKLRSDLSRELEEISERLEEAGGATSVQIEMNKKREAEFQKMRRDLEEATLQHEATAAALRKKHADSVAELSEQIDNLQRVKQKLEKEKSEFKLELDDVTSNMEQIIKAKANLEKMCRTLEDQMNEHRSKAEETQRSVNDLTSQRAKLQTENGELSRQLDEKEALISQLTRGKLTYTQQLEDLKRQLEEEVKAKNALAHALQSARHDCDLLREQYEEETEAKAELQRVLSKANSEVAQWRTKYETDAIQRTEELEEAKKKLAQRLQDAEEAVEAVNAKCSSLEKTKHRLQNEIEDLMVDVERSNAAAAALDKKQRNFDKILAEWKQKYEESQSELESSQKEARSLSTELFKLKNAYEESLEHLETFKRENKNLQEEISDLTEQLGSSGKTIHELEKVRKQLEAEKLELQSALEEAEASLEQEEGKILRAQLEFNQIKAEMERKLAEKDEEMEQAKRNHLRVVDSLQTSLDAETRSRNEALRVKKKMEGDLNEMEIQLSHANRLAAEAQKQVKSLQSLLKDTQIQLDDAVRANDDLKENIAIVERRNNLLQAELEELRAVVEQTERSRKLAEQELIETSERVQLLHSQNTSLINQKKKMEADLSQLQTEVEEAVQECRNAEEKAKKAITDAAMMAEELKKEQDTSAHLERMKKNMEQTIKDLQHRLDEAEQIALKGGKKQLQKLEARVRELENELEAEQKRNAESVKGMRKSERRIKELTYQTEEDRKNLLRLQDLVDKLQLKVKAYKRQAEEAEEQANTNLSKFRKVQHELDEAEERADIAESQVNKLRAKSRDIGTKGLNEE
T1 sequence (P85100 whole entry partner): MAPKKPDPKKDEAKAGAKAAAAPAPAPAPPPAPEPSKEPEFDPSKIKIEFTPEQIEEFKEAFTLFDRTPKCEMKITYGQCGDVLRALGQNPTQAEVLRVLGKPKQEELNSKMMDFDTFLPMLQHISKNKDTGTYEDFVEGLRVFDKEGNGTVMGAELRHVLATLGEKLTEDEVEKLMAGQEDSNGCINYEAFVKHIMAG
T1 sequence (Q3SZE5 whole entry partner): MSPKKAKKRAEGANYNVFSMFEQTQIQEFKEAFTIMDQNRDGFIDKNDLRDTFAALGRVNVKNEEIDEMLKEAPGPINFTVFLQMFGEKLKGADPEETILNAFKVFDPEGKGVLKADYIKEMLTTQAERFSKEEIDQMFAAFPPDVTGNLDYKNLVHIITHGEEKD
In words: Myosin inhibition assay (PK/LDH-coupled ATPase, bovine cardiac myofibrils).
Details: not given
The experiment is classed as biochemical.
For `CC(C)n1c(=O)cc(N[C@@H](C)Cc2ccc(F)cc2)[nH]c1=O` [Compound 51, (S)-6-((1-(4-fluorophenyl)propan-2-yl)amino)-3-isopropylpyrimidine-2,4(1H,3H)-dione], the IC50 lay in the range of 1 to 15 µM.

Still in this experiment, the particulars now being: bovine cardiac myofibrils, calcium giving 50% activation (pCa50); read-out: Biochemical Activity (pCa50).
Regarding `CCCn1c(=O)cc(N[C@@H](C)c2cccc(F)c2)[nH]c1=O` [Compound 129], the IC50 lay within 1 to 15 µM.
Still for that read-out and setting: next, `CC(C)n1c(=O)cc(N[C@@H](C)c2ccccc2O)[nH]c1=O` [Compound 116]: less than 1 µM; `C[C@H](Nc1cc(=O)n(CC2CC2)c(=O)[nH]1)c1cccc(C(F)(F)F)c1` [Compound 126]: 1 to 15 µM.
Still for that read-out and setting: the figure for `CC(C)n1c(=O)cc(N[C@@H](COCc2ccccc2)c2ccccc2)[nH]c1=O` [Compound 64, (R)-6-((2-(benzyloxy)-1-phenylethyl)amino)-3-isopropylpyrimidine-2,4(1H,3H)-dione] is 1 to 15 µM; for `C[C@H](Nc1cc(=O)n(C(CO)CO)c(=O)[nH]1)c1ccccc1` [Compound 113] it is 1 to 15 µM; for `C[C@H](Nc1cc(=O)n(-c2ccccn2)c(=O)[nH]1)c1ccccc1` [Compound 38] it is less than 1 µM.
The same measure, in the same setting: next, `Cc1ccccc1[C@H](C)Nc1cc(=O)n(C(C)C)c(=O)[nH]1` [Compound 68, (S)-3-isopropyl-6-((1-(o-tolyl)ethyl)amino)pyrimidine-2,4(1H,3H)-dione]: less than 1 µM; `CCn1c(=O)cc(N[C@H](c2ccccc2)C2CCC2)[nH]c1=O` [Compound 106]: less than 1 µM.
Regarding `Cc1cccc(-n2c(=O)cc(N[C@@H](C)c3ccccc3)[nH]c2=O)n1` [Compound 65, (S)-3-(6-methylpyridin-2-yl)-6-((1-phenylethyl)amino)pyrimidine-2,4(1H,3H)-dione], the IC50 fell in the range of 1 to 15 µM.
Regarding `CCCn1c(=O)cc(N[C@@H](C)c2ccc(F)cc2)[nH]c1=O` [Compound 136], the IC50 was less than 1 µM.
Still for that read-out and setting: next, `CC(C)n1c(=O)cc(N[C@@H](C)c2cccc(Br)c2)[nH]c1=O` [Compound 35]: less than 1 µM; `C[C@H](Nc1cc(=O)n(CC2CC2)c(=O)[nH]1)c1ccccc1` [Compound 110]: 1 to 15 µM; `C[C@H](Nc1cc(=O)n(C(C)(C)C)c(=O)[nH]1)c1ccccc1` [Compound 101]: 1 to 15 µM.
In the case of `C[C@H](Nc1cc(=O)n(CC2CC2)c(=O)[nH]1)c1cccc(F)c1` [Compound 125], the IC50 was less than 1 µM.
With `CC(C)n1c(=O)cc(N[C@@H](C)c2ccc(OCc3ccccc3)cc2)[nH]c1=O` [Compound 62, (S)-6-((1-(4-(benzyloxy)phenyl)ethyl)amino)-3-isopropylpyrimidine-2,4(1H,3H)-dione], the IC50 was less than 1 µM.
Same read-out and setting: next, `O=c1cc(N[C@H](c2ccccc2)C2CCC2)[nH]c(=O)n1CC(F)(F)F` [Compound 112]: less than 1 µM.
The same measure, in the same setting: the figure for `CC(C)n1c(=O)[nH]c(N[C@@H](C)c2ccc3c(c2)OC(F)(F)O3)c(Cl)c1=O` [Compound 128] is 1 to 15 µM.
The same measure, in the same setting: the figure for `C[C@H](Nc1cc(=O)n(C2CCC(F)(F)CC2)c(=O)[nH]1)c1ccccc1` [Compound 82] is less than 1 µM; for `C[C@H](Nc1cc(=O)n([C@H](C)CO)c(=O)[nH]1)c1ccccc1` [Compound 54, 3-((R)-1-hydroxypropan-2-yl)-6-(((S)-1-phenylethyl)amino)pyrimidine-2,4(1H,3H)-dione] it is 1 to 15 µM.
As to `COCCn1c(=O)cc(N[C@@H](C)c2ccccc2)[nH]c1=O` [Compound 102], the IC50 was 1 to 15 µM.

Still in this experiment, the particulars now being: bovine cardiac myofibrils, calcium giving 75% activation (pCa75); read-out: Biochemical Activity (pCa75).
Take `CC(C)n1c(=O)[nH]c(N[C@@H](C)c2ccccc2)c(Br)c1=O` [Compound 3, (S)-5-Bromo-3-isopropyl-6-((1-phenylethyl)amino)pyrimidine-2,4(1H,3H)-dione]: the IC50 is less than 1 µM.
Still for that read-out and setting: the figure for `C[C@H](Nc1cc(=O)n(-c2c(F)cccc2F)c(=O)[nH]1)c1ccccc1` [Compound 58, (S)-3-(2,6-difluorophenyl)-6-((1-phenylethyl)amino)pyrimidine-2,4(1H,3H)-dione] is less than 1 µM; for `C[C@H](Nc1cc(=O)n(C2CCOCC2)c(=O)[nH]1)c1ccccc1` [Compound 9, (S)-6-((1-phenylethyl)amino)-3-(tetrahydro-2H-pyran-4-yl)pyrimidine-2,4(1H,3H)-dione] it is less than 1 µM.
For `Cc1c(N[C@@H](C)c2ccccc2)[nH]c(=O)n(C(C)C)c1=O` [Compound 25], the IC50 was more than 15 µM.
With `CC(C)n1c(=O)cc(N[C@@H](C)c2c(F)cccc2F)[nH]c1=O` [Compound 59, (S)-6-((1-(2,6-difluorophenyl)ethyl)amino)-3-isopropylpyrimidine-2,4(1H,3H)-dione], the IC50 was less than 1 µM.
The same measure, in the same setting: next, `C[C@H](Nc1cc(=O)n(-c2ccccn2)c(=O)[nH]1)c1ccccc1` [Compound 38]: less than 1 µM; `CCC[C@H](Nc1cc(=O)n(C(C)C)c(=O)[nH]1)c1ccccc1` [Compound 78]: less than 1 µM.
As for `C[C@H](Nc1cc(=O)n(C2CCCCC2)c(=O)[nH]1)c1ccccc1` [Compound 44], the IC50 is less than 1 µM.
Still for that read-out and setting: the figure for `C[C@H](Nc1cc(=O)n(-c2cnn(C)c2)c(=O)[nH]1)c1ccccc1` [Compound 77] is 1 to 15 µM; for `CC(C)n1c(=O)cc(N[C@H](c2ccccc2)C2CCC2)[nH]c1=O` [Compound 8, (S)-6-((Cyclobutyl(phenyl)methyl)amino)-3-isopropylpyrimidine-2,4(1H,3H)-dione] it is less than 1 µM; for `C[C@H](Nc1cc(=O)n(-c2cncnc2)c(=O)[nH]1)c1ccccc1` [Compound 74] it is 1 to 15 µM.
Still for that read-out and setting: next, `CC(C)n1c(=O)cc(N[C@@H](C)c2cccc(Br)c2)[nH]c1=O` [Compound 35]: less than 1 µM; `C[C@H](Nc1cc(=O)n([C@@H]2CCCOC2)c(=O)[nH]1)c1ccccc1` [Compound 79]: 1 to 15 µM.
On to `C[C@H](Nc1cc(=O)n(C2CCOC2)c(=O)[nH]1)c1ccccc1` (stereo partly drawn) [Compound 11, 6-(((S)-1-phenylethyl)amino)-3-(tetrahydrofuran-3-yl)pyrimidine-2,4(1H,3H)-dione], for which the IC50 is 1 to 15 µM.
On the same count and under the same terms, the figure for `C[C@H](Nc1cc(=O)n(-c2cnccn2)c(=O)[nH]1)c1ccccc1` [Compound 75] is 1 to 15 µM; for `COC[C@H](Nc1cc(=O)n(C(C)C)c(=O)[nH]1)c1ccccc1` [Compound 29] it is less than 1 µM.
Take `COc1ccccc1[C@H](C)Nc1cc(=O)n(C(C)C)c(=O)[nH]1` [Compound 22]: the IC50 was in the range of 1 to 15 µM.
Still for that read-out and setting: next, `CC(C)[C@H](Nc1cc(=O)n(C(C)C)c(=O)[nH]1)c1ccccc1` [Compound 81]: 1 to 15 µM; `Cc1nccn1-c1cccc([C@H](C)Nc2cc(=O)n(C(C)C)c(=O)[nH]2)c1` [Compound 42]: less than 1 µM; `CC(C)n1c(=O)cc(N[C@@H](C)c2cc(F)ccc2F)[nH]c1=O` [Compound 34]: less than 1 µM.
On the same count and under the same terms, next, `C[C@H](Nc1cc(=O)n(C2CCC(F)(F)CC2)c(=O)[nH]1)c1ccccc1` [Compound 82]: less than 1 µM.
On the same count and under the same terms, the figure for `CC(C)n1c(=O)cc(N[C@@H](C)c2cccc(-n3ccnc3)c2)[nH]c1=O` [Compound 72] is 1 to 15 µM; for `C[C@H](Nc1cc(=O)n([C@H](C)CO)c(=O)[nH]1)c1ccccc1` [Compound 54, 3-((R)-1-hydroxypropan-2-yl)-6-(((S)-1-phenylethyl)amino)pyrimidine-2,4(1H,3H)-dione] it is 1 to 15 µM.
Turning to `CC(C)n1c(=O)cc(N[C@@H](C)Cc2ccccc2)[nH]c1=O` [Compound 90], the IC50 lay within 1 to 15 µM.
The same measure, in the same setting: next, `CC(C)n1c(=O)cc(N[C@@H](C)c2cccc(-n3cncn3)c2)[nH]c1=O` [Compound 41]: less than 1 µM; `CC(C)n1c(=O)cc(N[C@@H](C)c2cccc(N3CCOC3=O)c2)[nH]c1=O` [Compound 43]: less than 1 µM.

Still in this experiment, the particulars now being: pCa75; assay conducted using 0.5 μM myosin, IC50 values below 1.0 μM are approximate; read-out: IC50 (pCa75).
Take `CC(C)n1c(=O)cc(N[C@@H](C)c2c(F)cccc2F)[nH]c1=O` [Compound 59, (S)-6-((1-(2,6-difluorophenyl)ethyl)amino)-3-isopropylpyrimidine-2,4(1H,3H)-dione]: the IC50 is 0.45 µM.
